Broadly, the IC50 is the point on the concentration scale where inhibition reaches its midpoint.

Like-named read-outs stand apart in the source and are kept apart here.

This note sets out measurements from US10221163B2 (priority 2015, dated 2019).

Series [1] has as its system Escherichia coli expressing NDM-1 (CLB30005, CLB30016). Format: cell-based. Particulars: with imipenem 1 μg/ml; 95% inhibition of bacterial growth. In a few lines:
(§1)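 Imipenem 1 μg/ml + inhibitor; MBL-expressing clinical strains in 1.1×CAMHB, inoculum from saline suspension diluted 1:100; 35° C, 22–24 h; absorbance read-out.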

The test system of series [2] is Klebsiella pneumoniae expressing VIM-1 (IHMA599644). In kind it is cell-based. Particulars: with imipenem 1 μg/ml; 95% inhibition of bacterial growth. In a few lines: as §1
The subject of series [3] is Serratia marcescens expressing IMP-1 (CL5741). In kind it is cell-based. Particulars: with imipenem 1 μg/ml; 95% inhibition of bacterial growth. In a few lines: as §1
In series [4] the test system is Pseudomonas aeruginosa MB9798 vs MB9799. Particulars: ratio MITC95 PA_9798/MITC95 PA_9799. The procedure, abridged: (§2)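 Microbroth MIC tests in PAO1-background strains with fixed imipenem and/or ceftazidime, usually at the CLSI breakpoint, plus fixed class A/C β-lactamase inhibitor against AmpC. MBL inhibitor titrated; concentration restoring susceptibility recorded and compared as fold difference between efflux+ MB9798 and efflux− MB9799.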

Series [5] deals with Pseudomonas aeruginosa efflux+ (MB9798), IMP-1. Format: cell-based. Particulars: concentration restoring susceptibility to imipenem at 2 μg/mL in the presence of a class A, C, D serine β-lactamase inhibitor closely related to relebactam. The procedure, abridged:
as §2

Series [6] relates to Pseudomonas aeruginosa efflux− (MB9799), IMP-1. In kind it is cell-based. Particulars: concentration restoring susceptibility to imipenem at 2 μg/mL in the presence of a class A, C, D serine β-lactamase inhibitor closely related to relebactam. The procedure, abridged:
as §2

The target of the next series is VIM-1 (Pseudomonas aeruginosa (strain ATCC 15692 / DSM 22644 / CIP 104116 / JCM 14847 / LMG 12228 / 1C / PRS 101 / PAO1), UniProt A0A0F7KYQ8). In words: biochemical. Particulars: CCF2-FA substrate, 30 pM enzyme, 2 hours at 25° C. The procedure, abridged: (§3)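 Fluorescence assay, CCF2-FA substrate (cephalosporin core linking 7-hydroxycoumarin to fluorescein); inhibitor + MBL + substrate, 2 h, 25° C. IC50 by 4-parameter fit, semi-log plot.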

The target of a further series is NDM-1 (Klebsiella pneumoniae, UniProt C7C422). In words: biochemical. In kind it is biochemical. Particulars: fluorescence assay, CCF2-FA substrate, 1 pM enzyme, 2 hours at 25° C.; read-out: NDM-1 IC50. In a few lines: as §3
Sequence of NDM-1 (C7C422 whole entry, looked up, species assumed): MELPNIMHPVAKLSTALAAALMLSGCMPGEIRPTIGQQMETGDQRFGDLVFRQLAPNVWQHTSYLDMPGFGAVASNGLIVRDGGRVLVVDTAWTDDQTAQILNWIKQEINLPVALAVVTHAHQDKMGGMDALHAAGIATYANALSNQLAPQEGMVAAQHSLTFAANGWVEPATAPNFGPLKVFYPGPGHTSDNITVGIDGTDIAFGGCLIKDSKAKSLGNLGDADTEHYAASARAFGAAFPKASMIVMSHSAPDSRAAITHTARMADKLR
The next series concerns the target IMP-1 (Serratia marcescens, UniProt P52699). In words: biochemical. Particulars: CCF2-FA substrate, 2 pM enzyme, 2 hours at 25° C. Format: biochemical. In a few lines: as §3
[7] abbreviates: fluorescence assay, read-out: IMP-1 IC50.

Sequence of IMP-1 (P52699 whole entry, looked up, species assumed): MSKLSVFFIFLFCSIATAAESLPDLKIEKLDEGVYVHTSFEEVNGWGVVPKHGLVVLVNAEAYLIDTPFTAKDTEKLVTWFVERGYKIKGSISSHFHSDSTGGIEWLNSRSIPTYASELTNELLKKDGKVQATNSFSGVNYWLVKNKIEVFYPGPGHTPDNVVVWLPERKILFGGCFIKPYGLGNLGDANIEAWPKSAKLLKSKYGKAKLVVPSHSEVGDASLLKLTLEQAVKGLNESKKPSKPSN

Consider `Nc1nc2c(-c3ccc(S(=O)(=O)NC[C@@H]4CCNC4)c(S(N)(=O)=O)c3-c3nnn[nH]3)cccc2s1` [Example 75, 4-(2-amino-1,3-benzothiazol-4-yl)-N^1-[(3R)-pyrrolidin-3-ylmethyl]-3-(1H-tetrazol-5-yl)benzene-1,2-disulfonamide], for which the “Escherichia coli expressing NDM-1 (CLB30016) MITC95” value in series [1] stood at 1.563 µM. Further, the “Klebsiella pneumoniae expressing VIM-1 (IHMA599644) MITC95” value in [2] turned out to be 3.125 µM. Also, the “Serratia marcescens expressing IMP-1 (CL5741) MITC95” value in series [3] amounted to 1.563 µM. Also, the Efflux ratio in series [4] came to 1.00. Moreover, the “P. aeruginosa expressing IMP-1, efflux + (MB9798) MITC95” value in series [5] stood at 0.7813 µM. Also, the “P. aeruginosa expressing IMP-1, efflux − (MB9799) MITC95” value in series [6] is 0.7813 µM. For the same compound, the IC50 against VIM-1 (VIM-1 IC50, fluorescence assay) came to 0.115 nM; on NDM-1, 0.0207 nM; on IMP-1 (IMP-1 IC50, fluorescence assay) it was 0.158 nM.
On to `CN1CC[C@@H](CNS(=O)(=O)c2ccc(-c3cccc4sc(N)nc34)c(-c3nnn[nH]3)c2S(N)(=O)=O)C1` [Example 76, 4-(2-amino-1,3-benzothiazol-4-yl)-N^1-{[(3R)-1-methylpyrrolidin-3-yl]methyl}-3-(1H-tetrazol-5-yl)benzene-1,2-disulfonamide], for which the “Escherichia coli expressing NDM-1 (CLB30016) MITC95” value in [1] is 3.125 µM. Besides, the “Klebsiella pneumoniae expressing VIM-1 (IHMA599644) MITC95” value in series [2] came to 3.125 µM. In addition, the “Serratia marcescens expressing IMP-1 (CL5741) MITC95” value in [3] was 1.563 µM. Besides, in series [4], the Efflux ratio was 0.50. The “P. aeruginosa expressing IMP-1, efflux + (MB9798) MITC95” value in series [5] amounted to 0.7813 µM. In addition, the “P. aeruginosa expressing IMP-1, efflux − (MB9799) MITC95” value in series [6] was 1.563 µM. Also, the half-maximal inhibitory concentration (IC50) against VIM-1 (VIM-1 IC50, fluorescence assay) was 0.129 nM; at NDM-1, 0.0285 nM; at IMP-1 (setting [7]) it was 0.195 nM.
Take `CN1CC[C@H](CNS(=O)(=O)c2ccc(-c3cccc4sc(N)nc34)c(-c3nnn[nH]3)c2S(N)(=O)=O)C1` [Example 77, 4-(2-amino-1,3-benzothiazol-4-yl)-N1-{[(3S)-1-methylpyrrolidin-3-yl]methyl}-3-(1H-tetrazol-5-yl)benzene-1,2-disulfonamide]: the “Escherichia coli expressing NDM-1 (CLB30016) MITC95” value in series [1] came to 3.125 µM. Also, in series [2], the “Klebsiella pneumoniae expressing VIM-1 (IHMA599644) MITC95” value came to 6.25 µM. For the same compound, the “Serratia marcescens expressing IMP-1 (CL5741) MITC95” value in [3] came out at 1.563 µM. In [4], the Efflux ratio is recorded as 0.50. The “P. aeruginosa expressing IMP-1, efflux + (MB9798) MITC95” value in [5] was 0.7813 µM. In series [6], the “P. aeruginosa expressing IMP-1, efflux − (MB9799) MITC95” value was found to be 1.563 µM. The half-inhibitory concentration (IC50) on VIM-1 (VIM-1 IC50, fluorescence assay) was determined as 0.133 nM; at NDM-1, 0.0341 nM; on IMP-1 (setting [7]), 0.166 nM.
With `Nc1nc2c(-c3ccc(S(=O)(=O)N[C@H]4CN[C@H](CO)C4)c(S(N)(=O)=O)c3-c3nnn[nH]3)cccc2s1` [Example 78, 4-(2-amino-1,3-benzothiazol-4-yl)-N1-[(3R,5S)-5-(hydroxymethyl)pyrrolidin-3-yl]-3-(1H-tetrazol-5-yl)benzene-1,2-disulfonamide], the “Escherichia coli expressing NDM-1 (CLB30016) MITC95” value in series [1] worked out at 3.125 µM. In series [2], the “Klebsiella pneumoniae expressing VIM-1 (IHMA599644) MITC95” value was determined as 3.125 µM. Moreover, the “Serratia marcescens expressing IMP-1 (CL5741) MITC95” value in [3] worked out at 1.563 µM. In addition, the Efflux ratio in series [4] is 0.50. In addition, in series [5], the “P. aeruginosa expressing IMP-1, efflux + (MB9798) MITC95” value stood at 0.7813 µM. Besides, in [6], the “P. aeruginosa expressing IMP-1, efflux − (MB9799) MITC95” value is 1.563 µM. The half-maximal inhibitory concentration (IC50) on VIM-1 (VIM-1 IC50, fluorescence assay) is 0.183 nM; on NDM-1, 0.0225 nM; at IMP-1 (setting [7]), 0.234 nM.
For `Nc1nc2c(-c3ccc(S(=O)(=O)N[C@@H]4CN[C@@H](CO)C4)c(S(N)(=O)=O)c3-c3nnn[nH]3)cccc2s1` [Example 79, 4-(2-amino-1,3-benzothiazol-4-yl)-N1-[(3S,5R)-5-(hydroxymethyl)pyrrolidin-3-yl]-3-(1H-tetrazol-5-yl)benzene-1,2-disulfonamide], the “Escherichia coli expressing NDM-1 (CLB30016) MITC95” value in [1] is 1.563 µM. In addition, in series [2], the “Klebsiella pneumoniae expressing VIM-1 (IHMA599644) MITC95” value turned out to be 3.125 µM. Besides, in series [3], the “Serratia marcescens expressing IMP-1 (CL5741) MITC95” value stood at 1.563 µM. For the same compound, the Efflux ratio in series [4] was 0.50. Also, the “P. aeruginosa expressing IMP-1, efflux + (MB9798) MITC95” value in [5] came out at 0.7813 µM. The “P. aeruginosa expressing IMP-1, efflux − (MB9799) MITC95” value in series [6] turned out to be 1.563 µM. Besides, the IC50 came out at 0.181 nM against VIM-1 (VIM-1 IC50, fluorescence assay); 0.0427 nM on NDM-1; 0.283 nM at IMP-1 (setting [7]).
In the case of `Nc1nc2c(-c3ccc(S(=O)(=O)N[C@@H]4CN[C@H](CO)C4)c(S(N)(=O)=O)c3-c3nnn[nH]3)cccc2s1` [Example 80, 4-(2-amino-1,3-benzothiazol-4-yl)-N1-[(3S,5S)-5-(hydroxymethyl)pyrrolidin-3-yl]-3-(1H-tetrazol-5-yl)benzene-1,2-disulfonamide], the “Escherichia coli expressing NDM-1 (CLB30016) MITC95” value in series [1] is 1.563 µM. Further, the “Klebsiella pneumoniae expressing VIM-1 (IHMA599644) MITC95” value in series [2] is 3.125 µM. Also, the “Serratia marcescens expressing IMP-1 (CL5741) MITC95” value in series [3] turned out to be 1.563 µM. Moreover, in [4], the Efflux ratio was determined as 1.00. Also, in series [5], the “P. aeruginosa expressing IMP-1, efflux + (MB9798) MITC95” value came to 1.563 µM. Also, the “P. aeruginosa expressing IMP-1, efflux − (MB9799) MITC95” value in series [6] was 1.563 µM. Besides, the concentration for half-maximal inhibition (IC50) against VIM-1 (VIM-1 IC50, fluorescence assay) came to 0.158 nM; on NDM-1 it was 0.0488 nM; at IMP-1 (setting [7]), 0.336 nM.
On to `Nc1nc2c(-c3ccc(S(=O)(=O)N[C@H]4CN[C@@H](CO)C4)c(S(N)(=O)=O)c3-c3nnn[nH]3)cccc2s1` [Example 81, 4-(2-amino-1,3-benzothiazol-4-yl)-N1-[(3R,5R)-5-(hydroxymethyl)pyrrolidin-3-yl]-3-(1H-tetrazol-5-yl)benzene-1,2-disulfonamide], for which, in [1], the “Escherichia coli expressing NDM-1 (CLB30016) MITC95” value came to 1.563 µM. Further, the “Klebsiella pneumoniae expressing VIM-1 (IHMA599644) MITC95” value in [2] is 1.563 µM. The “Serratia marcescens expressing IMP-1 (CL5741) MITC95” value in [3] was 1.563 µM. In series [4], the Efflux ratio is recorded as 0.50. Moreover, in series [5], the “P. aeruginosa expressing IMP-1, efflux + (MB9798) MITC95” value stood at 0.7813 µM. In series [6], the “P. aeruginosa expressing IMP-1, efflux − (MB9799) MITC95” value was 1.563 µM. The IC50 against VIM-1 (VIM-1 IC50, fluorescence assay) stood at 0.135 nM; at NDM-1, 0.0286 nM; on IMP-1 (setting [7]), 0.191 nM.
`Nc1nc2c(-c3ccc(S(=O)(=O)N[C@H]4CN[C@@H](C(=O)O)C4)c(S(N)(=O)=O)c3-c3nnn[nH]3)cccc2s1` [Example 82, (4R)-4-({[4-(2-amino-1,3-benzothiazol-4-yl)-2-sulfamoyl-3-(1H-tetrazol-5-yl)phenyl]sulfonyl}amino)-D-proline]: in series [1], the “Escherichia coli expressing NDM-1 (CLB30016) MITC95” value was found to be 6.25 µM. Besides, the “Klebsiella pneumoniae expressing VIM-1 (IHMA599644) MITC95” value in series [2] was determined as 12.5 µM. Besides, the “Serratia marcescens expressing IMP-1 (CL5741) MITC95” value in series [3] came out at 12.5 µM. In addition, the Efflux ratio in [4] stood at 0.50. Further, the “P. aeruginosa expressing IMP-1, efflux + (MB9798) MITC95” value in series [5] worked out at 3.125 µM. For the same compound, in series [6], the “P. aeruginosa expressing IMP-1, efflux − (MB9799) MITC95” value was found to be 6.25 µM. The IC50 is 0.197 nM on VIM-1 (VIM-1 IC50, fluorescence assay); 0.0493 nM at NDM-1; 0.206 nM on IMP-1 (setting [7]).
Take `Nc1nc2c(-c3ccc(S(=O)(=O)NC4(CO)CCNC4)c(S(N)(=O)=O)c3-c3nnn[nH]3)cccc2s1` (stereo not drawn) [Example 83, 4-(2-amino-1,3-benzothiazol-4-yl)-N1-[3-(hydroxymethyl)pyrrolidin-3-yl]-3-(1H-tetrazol-5-yl)benzene-1,2-disulfonamide]: in series [1], the “Escherichia coli expressing NDM-1 (CLB30016) MITC95” value came to 3.125 µM. For the same compound, the “Klebsiella pneumoniae expressing VIM-1 (IHMA599644) MITC95” value in series [2] worked out at 3.125 µM. The “Serratia marcescens expressing IMP-1 (CL5741) MITC95” value in [3] worked out at 3.125 µM. Further, the Efflux ratio in [4] stood at 0.50. Further, the “P. aeruginosa expressing IMP-1, efflux + (MB9798) MITC95” value in series [5] came out at 0.7813 µM. Moreover, the “P. aeruginosa expressing IMP-1, efflux − (MB9799) MITC95” value in series [6] stood at 1.563 µM. The concentration for half-maximal inhibition (IC50) on VIM-1 (fluorescence assay, read-out: VIM-1 IC50) turned out to be 0.208 nM; on NDM-1, 0.0483 nM; on IMP-1 (setting [7]) it was 0.261 nM.
